Laboratory results reported in ChEMBL document CHEMBL1121842, “Preparation and antibacterial activity of delta 1-thienamycin” (1981).
Activity calls are given as the source filed them. The calls are words filed in the database; no cut-off is given here.

Tested on: Staphylococcus aureus
Experiment: Tested for antibacterial activity against Staphylococcus aureus by disc-diffusion antibacterial assay; Inactive
Format: functional, organism-based

## C[C@@H](O)[C@H]1C(=O)N2[C@@H](C(=O)O)C(SCCN)=C[C@H]12
  inhibition: inactive
